# Source: patent publication US20240109905A1, “4-ALKOXY-6-OXO-PYRIDAZINE DERIVATIVES MODULATING NLRP3” (JANSSEN PHARMACEUTICA NV, priority 2021, published 2024)
# Where two headings read alike, the source gives them in different places.
# What was measured:
# IL-1β = assay: PBMC assay: IL-1β release after LPS stimulation; type: cell-based; conditions: human PBMCs, 30 min compound, 100 ng/ml LPS for 6 hrs, MSD, read-out: IL1β AC50
# Method: The activity of a compound according to the present invention can be assessed by in vitro methods.
# (§1) Peripheral venous blood was collected from healthy individuals and human peripheral blood mononuclear cells (PBMCs) were isolated from blood by Ficoll-Histopaque (Sigma-Aldrich, A0561) density gradient centrifugation. After isolation, PBMCs were stored in liquid nitrogen for later use. Upon thawing, PBMC cell viability was determined in growth medium (RPMI media supplemented with 10% fetal bovine serum, 1% Pen-Strep and 1% L-glutamine). Compounds were spotted in a 1:3 serial dilution in DMSO and diluted to the final concentration in 30 μl medium in 96 well plates (Falcon, 353072). PBMCs were added at a density of 7.5×10^4 cells per well and incubated for 30 min in a 5% CO2 incubator at 37° C. LPS stimulation was performed by addition of 100 ng/ml LPS (final concentration, Invivogen, tlrl-smlps) for 6 hrs followed by collection of cellular supernatant and the analysis of IL-1β (μM) and TNF cytokines levels (μM) via MSD technology according to manufacturers' guidelines (MSD, K151A0H).
# (§2) IC50 and AC50 values (for […]) and EC50 and AC50 values (TNF) were obtained on compounds of the invention/examples, and the AC50 values are depicted in the following table: […]
# TNF = assay: PBMC assay: TNF cytokine level after LPS stimulation; type: cell-based; conditions: human PBMCs, 30 min compound, 100 ng/ml LPS for 6 hrs, MSD
# Method: as §1, §2
Structure (SMILES),AC50 (IL-1β; PBMC) [µM],AC50 (TNF; PBMC) [µM],AC50 (IL-1β) [µM],AC50 (TNF) [µM]
"CC(C)c1nn(CC(=O)Nc2ccc3nncn3c2)c(=O)cc1OC1CCN(C(=O)OC(C)(C)C)C1 (centres unmarked) [Compound 1F, tert-butyl 3-((1-(2-([1,2,4]triazolo[4,3-a]pyridin-6-ylamino)-2-oxoethyl)-3-isopropyl-6-oxo-1,6-dihydropyridazin-4-yl)oxy)pyrrolidine-1-carboxylate]",> 15,> 10,–,–
CC(C)c1nn(CC(=O)Nc2ccc3nncn3c2)c(=O)cc1OCC1CN(C(=O)OC(C)(C)C)C1 [Compound 2F],> 15,> 10,–,–
CC(C)c1nn(CC(=O)Nc2ccc3nncn3c2)c(=O)cc1OC1CN(C(=O)OC(C)(C)C)C1 [Compound 3F],> 15,> 10,–,–
CC(Oc1cc(=O)n(CC(=O)Nc2ccc3nncn3c2)nc1C(C)C)C(=O)N(C)C (centres unmarked) [Compound 4F],> 15,> 10,–,–
CC(C)c1nn(CC(=O)Nc2ccc3nncn3c2)c(=O)cc1OC1CCCC1 [Compound 5F],0.47,> 10,–,–
CC(C)c1nn(CC(=O)Nc2ccc3nncn3c2)c(=O)cc1OCC1CS(=O)(=O)C1 [Compound 6F],> 15,> 10,–,–
CC(C)c1nn(CC(=O)Nc2ccc3nncn3c2)c(=O)cc1OCC1CCC1 [Compound 7F],0.21,> 10,–,–
CC(C)c1nn(CC(=O)Nc2ccc3nncn3c2)c(=O)cc1OCC(C)(F)F [Compound 8F],0.19,> 10,–,–
CCC(C)Oc1cc(=O)n(CC(=O)Nc2ccc3nncn3c2)nc1C(C)C (centres unmarked) [Compound 9F],0.56,> 10,–,–
CC(C)COc1cc(=O)n(CC(=O)Nc2ccc3nncn3c2)nc1C(C)C [Compound 10F],0.06,> 10,–,–
CC(C)c1nn(CC(=O)Nc2ccc3nncn3c2)c(=O)cc1OCC(C)(C)F [Compound 11F],0.32,> 10,–,–
CC(C)c1nn(CC(=O)Nc2ccc3nncn3c2)c(=O)cc1OCCN(C)C [Compound 12F],> 15,> 10,–,–
CC(C)c1nn(CC(=O)Nc2ccc3nncn3c2)c(=O)cc1OC1COC1 [Compound 13F],> 15,> 10,–,–
CC(C)c1nn(CC(=O)Nc2ccc3nncn3c2)c(=O)cc1OC1CCC1 [Compound 14F],0.68,> 10,–,–
CC(C)c1nn(CC(=O)Nc2ccc3nncn3c2)c(=O)cc1OCC1(C)COC1 [Compound 15F],2.3,> 10,–,–
CC(C)c1nn(CC(=O)Nc2ccc3nncn3c2)c(=O)cc1OCC(C)(C)C(F)(F)F [Compound 16F],1.56,> 10,–,–
CC(C)c1nn(CC(=O)Nc2ccc3nncn3c2)c(=O)cc1OCC(F)F [Compound 17F],0.69,> 10,–,–
CC(C)Oc1cc(=O)n(CC(=O)Nc2ccc3nncn3c2)nc1C(C)C [Compound 18F],0.66,> 10,–,–
CC(C)c1nn(CC(=O)Nc2ccc3nncn3c2)c(=O)cc1OCC1CC(F)(F)C1 [Compound 19F],5.33,> 10,–,–
CC(C)c1nn(CC(=O)Nc2ccc3nncn3c2)c(=O)cc1OC(C)C(F)(F)F (centres unmarked) [Compound 20F],1.29,> 10,–,–
CC(C)c1nn(CC(=O)Nc2ccc3nncn3c2)c(=O)cc1OCC1CC1(F)F (centres unmarked) [Compound 21F],0.65,> 10,–,–
CC(C)c1nn(CC(=O)Nc2ccc3nncn3c2)c(=O)cc1OCC1CC1 [Compound 22F],0.11,> 10,–,–
CC(C)c1nn(CC(=O)Nc2ccc3nncn3c2)c(=O)cc1OCC(F)(F)F [Compound 23F],0.16,> 10,–,–
CCCOc1cc(=O)n(CC(=O)Nc2ccc3nncn3c2)nc1C(C)C [Compound 24F],0.19,> 10,–,–
CC(C)c1nn(CC(=O)Nc2ccc3nncn3c2)c(=O)cc1Oc1ccccc1 [Compound 25F],> 15,> 10,–,–
CC(C)c1nn(CC(=O)Nc2ccc3nncn3c2)c(=O)cc1OC1CCOCC1 [Compound 26F],13.6,> 10,–,–
"COc1cc(=O)n(CC(=O)Nc2ccc3nncn3n2)nc1C(C)C [Compound 27C, N-([1,2,4]triazolo[4,3-b]pyridazin-6-yl)-2-(3-isopropyl-4-methoxy-6-oxopyridazin-1(6H)-yl)acetamide]",13.3,> 10,–,–
COc1c(C(C)C)nn(CC(=O)Nc2ccc3nncn3c2)c(=O)c1C1CC1 [Compound 28E],> 15,> 10,–,–

Structure (SMILES),AC50 (IL-1β; PBMC) [µM],AC50 (TNF; PBMC) [µM],AC50 (IL-1β) [µM],AC50 (TNF) [µM]
COc1c(C(C)C)nn(CC(=O)Nc2ccc3nncn3c2)c(=O)c1Br [Compound 29E],> 15,> 10,–,–
O=C(Cn1nc(C2CC2)c(OC2CCOCC2)cc1=O)Nc1ccc2nncn2c1 [Compound 30G],14.6,> 10,–,–
CCOc1cc(=O)n(CC(=O)Nc2ccc3nncn3n2)nc1C1CC1 [Compound 31C],0.92,> 10,–,–
O=C(Cn1nc(C2CC2)c(OCC23CC(CO2)C3)cc1=O)Nc1ccc2nncn2n1 [Compound 32E],14.6,> 10,–,–
CCOc1cc(=O)n(CC(=O)Nc2ccc3nncn3c2)nc1C1CC1 [Compound 33D],1.25,> 10,–,–
"COC(=O)C12CC(NC(=O)Cn3nc(C(C)C)c(OCC(C)C)cc3=O)(C1)C2 [Compound 36, methyl 3-(2-(4-isobutoxy-3-isopropyl-6-oxopyridazin-1(6H)-yl)acetamido)bicyclo[1.1.1]pentane-1-carboxylate]",0.01,3.81,–,–
COC(=O)C12CCC(NC(=O)Cn3nc(C(C)C)c(OCC(C)C)cc3=O)(CC1)C2 [Compound 38],0.02,12.2,–,–
CC(C)COc1c(C(C)C)nn(CC(=O)Nc2ccc3nncn3n2)c(=O)c1Cl [Compound 39],0.02,0.6,–,–
CC(C)COc1cc(=O)n(CC(=O)Nc2ccc3nncn3n2)nc1C(C)C [Compound 41],0.04,> 20,–,–
Cc1c(OCC(C)C)c(C(C)C)nn(CC(=O)Nc2ccc3nncn3n2)c1=O [Compound 42],0.05,9.41,–,–
CC(C)COc1cc(=O)n(CC(=O)Nc2nc3cnccn3n2)nc1C(C)C [Compound 43],0.07,> 20,–,–
"CC(C)c1nn(CC(=O)Nc2ccc3nncn3n2)c(=O)c(Cl)c1OCC1CC1 [Compound 44, N-([1,2,4]triazolo[4,3-b]pyridazin-6-yl)-2-(5-chloro-4-(cyclopropylmethoxy)-3-isopropyl-6-oxopyridazin-1(6H)-yl)acetamide]",0.07,3.53,–,–
COC(=O)C12CCC(NC(=O)Cn3nc(C(C)C)c(OCC(C)C)cc3=O)(CC1)CC2 [Compound 45],0.07,> 20,–,–
CC(C)c1nn(CC(=O)Nc2ccc3nncn3n2)c(=O)c(Cl)c1OCC(C)(F)F [Compound 46],0.08,8.17,–,–
CC(C)COc1cc(=O)n(CC(=O)Nc2ccncc2)nc1C(C)C [Compound 47],0.08,> 20,–,–
CCCOc1c(C(C)C)nn(CC(=O)Nc2ccc3nncn3n2)c(=O)c1Cl [Compound 48],0.09,4.98,–,–
CC(C)COc1cc(=O)n(CC(=O)Nc2ccc3nccn3n2)nc1C(C)C [Compound 49],0.09,> 20,–,–
CC(C)c1nn(CC(=O)Nc2ccc3nncn3n2)c(=O)c(Cl)c1OCCC(F)(F)F [Compound 50],0.09,1.62,–,–
CC(C)c1nn(CC(=O)Nc2ccc3nncn3n2)c(=O)cc1OCC1CC1 [Compound 51],0.09,> 20,–,–
CC(C)COc1cc(=O)n(CC(=O)Nc2ccncc2F)nc1C(C)C [Compound 52],0.09,> 20,–,–
CC(C)COc1cc(=O)n(CC(=O)Nc2nc3ccccn3n2)nc1C(C)C [Compound 53],0.1,> 20,–,–
"Cc1c(OCC(C)C)c(C(C)C)nn(CC(=O)Nc2ccc3nncn3c2)c1=O [Compound 54, N-([1,2,4]triazolo[4,3-a]pyridin-6-yl)-2-(4-isobutoxy-3-isopropyl-5-methyl-6-oxopyridazin-1(6H)-yl)acetamide]",0.1,15.6,–,–
CC(C)c1nn(CC(=O)Nc2ccc3nncn3n2)c(=O)cc1OCC(C)(F)F [Compound 56],0.13,> 20,–,–
CC(C)c1nn(CC(=O)Nc2ccc3nncn3n2)c(=O)cc1OCC1(F)CC1 [Compound 57],0.14,> 20,–,–
CC(C)COc1cc(=O)n(CC(=O)Nc2ccc3nncn3n2)nc1N(C)C [Compound 58],0.15,> 10,–,–
CC(C)COc1cc(=O)n(NC23CCC(O)(CC2)C3)nc1C(C)C [Compound 59],–,–,0.16,> 20
"CC(C)COc1c(C(C)C)nn(CC(=O)Nc2ccc3nncn3c2)c(=O)c1Cl [Compound 60, N-([1,2,4]triazolo[4,3-a]pyridin-6-yl)-2-(5-chloro-4-isobutoxy-3-isopropyl-6-oxopyridazin-1(6H)-yl)acetamide]",0.16,> 20,–,–
